# Test results published in PMC10412597, “Small molecule branched-chain ketoacid dehydrogenase kinase (BDK) inhibitors with opposing effects on BDK protein levels” (Nature Communications, 2023).
# Columns and labels:
# Design in all cases: Invitrogen kinase panel, per cent inhibition of kinase activity
# [1] = molecular target: ABL1 (Homo sapiens, UniProt P00519); settings: 10 µM, inhibitor
# Procedure: (§1) To discover a potent and selective BDK inhibitor, a subset of the Pfizer compound collection was screened. […] Off target activity was assessed in both CEREP and kinase panels (Supplementary Tables 2, 3).
# [2] = molecular target: CAMK1 (Homo sapiens, UniProt Q14012); settings: 10 µM, inhibitor
# Procedure: as §1
# [3] = molecular target: CSNK1A1 (Homo sapiens, UniProt P48729); settings: 10 µM, inhibitor
# Procedure: as §1
# [4] = molecular target: CSNK2A2 (Homo sapiens, UniProt P19784); settings: 10 µM, inhibitor
# Procedure: as §1
# [5] = molecular target: EPHA2 (Homo sapiens, UniProt P29317); settings: 10 µM, inhibitor
# Procedure: as §1
# [6] = molecular target: GSK3B (Homo sapiens, UniProt P49841); settings: 10 µM, inhibitor
# Procedure: as §1
# [7] = molecular target: HCK (Homo sapiens, UniProt P08631); settings: 10 µM, inhibitor
# Procedure: as §1
# [8] = molecular target: LCK (Homo sapiens, UniProt P06239); settings: 10 µM, inhibitor
# Procedure: as §1
# [9] = molecular target: MAPK13 (Homo sapiens, UniProt O15264); settings: 10 µM, inhibitor
# Procedure: as §1
# [10] = molecular target: T1, Misshapen-like Kinase 1 (Homo sapiens, UniProt Q8N4C8); settings: 10 µM, inhibitor
# T1 construct: gene MINK1
# Procedure: as §1
# [11] = molecular target: NEK6 (Homo sapiens, UniProt Q9HC98); settings: 10 µM, inhibitor
# Procedure: as §1
# [12] = molecular target: PIK3CB (Homo sapiens, UniProt P42338); settings: 10 µM, inhibitor
# Procedure: as §1
# [13] = molecular target: T2, PIM-1 (Homo sapiens, UniProt P11309); settings: 10 µM, inhibitor
# T2 construct: gene PIM1
# Procedure: as §1
# [14] = molecular target: PIM2 (Homo sapiens, UniProt Q9P1W9); settings: 10 µM, inhibitor
# Procedure: as §1
# [15] = molecular target: PLK1 (Homo sapiens, UniProt P53350); settings: 10 µM, inhibitor
# Procedure: as §1
# [16] = molecular target: T3, PRKCA (Homo sapiens, UniProt P17252); settings: 10 µM, inhibitor
# T3 construct: 1 mM ATP
# Procedure: as §1
# [17] = molecular target: T4, PRKCB2 (Homo sapiens, UniProt P05771); settings: 10 µM, inhibitor
# T4 construct: gene PRKCB; isoform beta2
# Procedure: as §1
# [18] = molecular target: ROCK1 (Homo sapiens, UniProt Q13464); settings: 10 µM, inhibitor
# Procedure: as §1
# [19] = molecular target: T5, SGK1 (Homo sapiens, UniProt O00141); settings: 10 µM, inhibitor
# T5 sequence (O00141 1-431): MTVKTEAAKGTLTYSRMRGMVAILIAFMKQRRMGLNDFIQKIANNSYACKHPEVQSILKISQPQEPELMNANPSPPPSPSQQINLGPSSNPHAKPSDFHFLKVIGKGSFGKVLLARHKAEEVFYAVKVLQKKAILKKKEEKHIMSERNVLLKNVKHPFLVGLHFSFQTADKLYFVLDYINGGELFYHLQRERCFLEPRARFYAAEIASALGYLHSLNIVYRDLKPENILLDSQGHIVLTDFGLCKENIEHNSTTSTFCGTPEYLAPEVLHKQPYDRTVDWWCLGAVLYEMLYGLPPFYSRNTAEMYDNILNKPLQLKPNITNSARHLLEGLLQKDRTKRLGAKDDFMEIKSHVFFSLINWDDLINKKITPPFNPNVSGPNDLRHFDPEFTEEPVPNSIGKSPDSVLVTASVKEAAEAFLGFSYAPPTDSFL
# Procedure: as §1
# [20] = molecular target: SPHK2 (Homo sapiens, UniProt Q9NRA0); settings: inhibitor
# Procedure: as §1
# [21] = molecular target: SRPK1 (Homo sapiens, UniProt Q96SB4); settings: 10 µM, inhibitor
# Procedure: as §1
# [22] = molecular target: TEK (Homo sapiens, UniProt Q02763); settings: 10 µM, inhibitor
# Procedure: as §1
# [23] = molecular target: mTOR (Homo sapiens, UniProt P42345); settings: 10 µM, inhibitor
# Procedure: as §1
# T4 sequence (P05771 whole entry, canonical isoform): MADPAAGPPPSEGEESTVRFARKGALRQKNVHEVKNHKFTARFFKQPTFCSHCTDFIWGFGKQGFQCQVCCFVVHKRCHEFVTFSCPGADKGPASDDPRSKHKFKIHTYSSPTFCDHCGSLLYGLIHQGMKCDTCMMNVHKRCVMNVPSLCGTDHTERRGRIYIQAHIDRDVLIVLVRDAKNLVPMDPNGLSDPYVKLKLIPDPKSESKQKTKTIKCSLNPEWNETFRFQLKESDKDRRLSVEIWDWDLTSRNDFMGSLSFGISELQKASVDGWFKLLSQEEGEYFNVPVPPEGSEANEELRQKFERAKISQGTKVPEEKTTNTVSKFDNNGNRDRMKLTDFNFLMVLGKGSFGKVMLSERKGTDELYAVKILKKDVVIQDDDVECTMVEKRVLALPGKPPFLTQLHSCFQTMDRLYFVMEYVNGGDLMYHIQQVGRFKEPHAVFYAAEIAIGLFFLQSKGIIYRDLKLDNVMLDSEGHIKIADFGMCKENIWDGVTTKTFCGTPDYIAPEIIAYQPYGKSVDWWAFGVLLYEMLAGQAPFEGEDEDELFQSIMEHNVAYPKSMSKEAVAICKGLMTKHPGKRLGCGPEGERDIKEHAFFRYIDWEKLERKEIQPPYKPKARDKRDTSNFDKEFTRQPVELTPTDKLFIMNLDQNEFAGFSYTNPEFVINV
# EPHA2, sequence (P29317 whole entry): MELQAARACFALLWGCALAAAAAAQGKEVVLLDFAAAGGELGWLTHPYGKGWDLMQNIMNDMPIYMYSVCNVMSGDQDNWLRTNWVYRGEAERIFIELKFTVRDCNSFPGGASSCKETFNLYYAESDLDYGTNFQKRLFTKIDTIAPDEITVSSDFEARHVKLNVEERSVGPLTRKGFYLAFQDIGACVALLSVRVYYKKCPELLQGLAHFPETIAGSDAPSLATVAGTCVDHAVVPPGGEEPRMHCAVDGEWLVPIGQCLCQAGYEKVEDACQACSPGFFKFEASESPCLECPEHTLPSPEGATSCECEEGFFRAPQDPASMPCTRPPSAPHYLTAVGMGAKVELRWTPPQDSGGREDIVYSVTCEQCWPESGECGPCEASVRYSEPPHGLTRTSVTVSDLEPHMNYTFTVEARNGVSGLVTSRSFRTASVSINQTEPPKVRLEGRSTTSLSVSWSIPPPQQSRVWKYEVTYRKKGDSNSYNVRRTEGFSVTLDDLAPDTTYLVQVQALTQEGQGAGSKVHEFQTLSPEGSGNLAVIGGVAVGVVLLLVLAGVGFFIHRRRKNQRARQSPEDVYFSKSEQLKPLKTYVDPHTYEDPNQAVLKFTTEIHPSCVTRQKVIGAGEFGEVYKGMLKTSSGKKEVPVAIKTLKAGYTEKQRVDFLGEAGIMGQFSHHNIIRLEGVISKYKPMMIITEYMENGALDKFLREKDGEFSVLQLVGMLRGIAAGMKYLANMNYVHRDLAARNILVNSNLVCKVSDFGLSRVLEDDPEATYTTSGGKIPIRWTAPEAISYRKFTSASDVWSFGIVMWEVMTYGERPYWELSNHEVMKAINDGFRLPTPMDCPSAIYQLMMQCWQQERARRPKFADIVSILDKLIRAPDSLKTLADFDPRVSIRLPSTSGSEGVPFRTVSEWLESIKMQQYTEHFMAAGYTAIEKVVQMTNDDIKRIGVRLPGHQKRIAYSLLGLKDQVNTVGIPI
# ROCK1, sequence (Q13464 whole entry): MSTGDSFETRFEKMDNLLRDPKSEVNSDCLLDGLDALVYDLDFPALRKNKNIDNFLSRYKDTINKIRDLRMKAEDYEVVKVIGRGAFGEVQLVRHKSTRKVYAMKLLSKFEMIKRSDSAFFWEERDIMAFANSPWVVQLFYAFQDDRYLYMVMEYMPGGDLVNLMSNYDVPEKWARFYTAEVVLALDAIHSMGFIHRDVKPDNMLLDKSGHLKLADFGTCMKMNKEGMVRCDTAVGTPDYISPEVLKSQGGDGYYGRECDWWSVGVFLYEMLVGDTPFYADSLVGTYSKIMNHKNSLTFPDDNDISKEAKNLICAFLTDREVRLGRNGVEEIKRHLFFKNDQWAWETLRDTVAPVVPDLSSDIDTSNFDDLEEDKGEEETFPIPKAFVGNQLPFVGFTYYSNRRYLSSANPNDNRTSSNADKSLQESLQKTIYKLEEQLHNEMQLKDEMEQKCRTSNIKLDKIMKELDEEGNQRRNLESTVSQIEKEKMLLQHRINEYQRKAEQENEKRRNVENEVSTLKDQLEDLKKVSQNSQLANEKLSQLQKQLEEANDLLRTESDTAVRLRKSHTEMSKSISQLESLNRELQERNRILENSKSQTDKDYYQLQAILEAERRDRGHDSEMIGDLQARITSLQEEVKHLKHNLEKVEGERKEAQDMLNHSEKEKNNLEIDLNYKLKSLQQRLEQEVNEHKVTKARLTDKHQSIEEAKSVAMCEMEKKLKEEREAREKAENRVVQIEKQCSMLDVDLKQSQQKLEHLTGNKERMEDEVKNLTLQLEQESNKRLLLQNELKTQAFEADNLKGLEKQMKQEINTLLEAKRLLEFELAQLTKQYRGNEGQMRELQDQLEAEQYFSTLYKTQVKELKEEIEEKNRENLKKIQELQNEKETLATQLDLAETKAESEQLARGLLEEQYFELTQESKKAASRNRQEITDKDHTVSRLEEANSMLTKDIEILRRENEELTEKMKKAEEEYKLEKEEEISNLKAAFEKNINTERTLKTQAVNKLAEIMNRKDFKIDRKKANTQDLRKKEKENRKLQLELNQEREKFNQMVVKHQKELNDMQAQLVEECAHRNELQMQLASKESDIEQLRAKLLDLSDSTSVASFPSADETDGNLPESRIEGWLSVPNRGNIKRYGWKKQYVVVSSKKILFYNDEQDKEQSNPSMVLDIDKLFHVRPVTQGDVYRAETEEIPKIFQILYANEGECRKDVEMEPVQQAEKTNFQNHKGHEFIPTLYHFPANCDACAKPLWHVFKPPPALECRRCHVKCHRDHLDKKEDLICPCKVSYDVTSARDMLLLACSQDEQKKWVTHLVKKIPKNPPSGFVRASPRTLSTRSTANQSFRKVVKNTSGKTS
# LCK, sequence (P06239 whole entry): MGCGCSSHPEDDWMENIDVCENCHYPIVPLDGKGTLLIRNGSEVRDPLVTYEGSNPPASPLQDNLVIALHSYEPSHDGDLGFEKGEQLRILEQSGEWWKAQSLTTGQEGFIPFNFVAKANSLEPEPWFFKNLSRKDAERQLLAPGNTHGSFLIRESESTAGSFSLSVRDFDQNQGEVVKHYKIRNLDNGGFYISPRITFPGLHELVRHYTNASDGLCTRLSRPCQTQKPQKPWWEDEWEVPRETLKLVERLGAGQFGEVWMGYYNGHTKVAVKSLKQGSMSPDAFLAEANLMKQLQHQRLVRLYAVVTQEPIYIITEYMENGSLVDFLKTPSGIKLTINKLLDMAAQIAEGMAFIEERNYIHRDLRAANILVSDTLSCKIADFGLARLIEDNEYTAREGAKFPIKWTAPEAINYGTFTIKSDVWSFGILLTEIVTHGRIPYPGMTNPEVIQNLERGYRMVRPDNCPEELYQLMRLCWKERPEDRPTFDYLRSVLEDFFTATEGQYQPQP
# CSNK1A1, sequence (P48729 whole entry): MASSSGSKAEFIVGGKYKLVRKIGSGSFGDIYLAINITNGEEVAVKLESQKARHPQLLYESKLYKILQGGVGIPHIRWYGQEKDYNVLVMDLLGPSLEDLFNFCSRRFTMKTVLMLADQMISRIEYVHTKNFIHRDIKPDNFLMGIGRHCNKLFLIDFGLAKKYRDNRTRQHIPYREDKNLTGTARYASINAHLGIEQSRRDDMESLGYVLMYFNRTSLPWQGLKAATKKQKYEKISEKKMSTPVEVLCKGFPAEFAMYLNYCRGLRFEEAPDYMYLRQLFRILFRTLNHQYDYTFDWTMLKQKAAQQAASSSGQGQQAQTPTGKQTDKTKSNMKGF
# CSNK2A2, sequence (P19784 whole entry): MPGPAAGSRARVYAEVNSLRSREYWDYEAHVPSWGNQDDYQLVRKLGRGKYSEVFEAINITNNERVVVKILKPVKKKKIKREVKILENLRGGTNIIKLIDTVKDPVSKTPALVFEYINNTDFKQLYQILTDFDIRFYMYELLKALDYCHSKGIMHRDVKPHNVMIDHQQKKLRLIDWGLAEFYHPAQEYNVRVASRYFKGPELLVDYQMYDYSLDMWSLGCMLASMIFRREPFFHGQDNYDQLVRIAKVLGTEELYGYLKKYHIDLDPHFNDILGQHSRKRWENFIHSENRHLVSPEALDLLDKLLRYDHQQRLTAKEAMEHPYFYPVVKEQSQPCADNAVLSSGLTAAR
# PIM2, sequence (Q9P1W9 whole entry): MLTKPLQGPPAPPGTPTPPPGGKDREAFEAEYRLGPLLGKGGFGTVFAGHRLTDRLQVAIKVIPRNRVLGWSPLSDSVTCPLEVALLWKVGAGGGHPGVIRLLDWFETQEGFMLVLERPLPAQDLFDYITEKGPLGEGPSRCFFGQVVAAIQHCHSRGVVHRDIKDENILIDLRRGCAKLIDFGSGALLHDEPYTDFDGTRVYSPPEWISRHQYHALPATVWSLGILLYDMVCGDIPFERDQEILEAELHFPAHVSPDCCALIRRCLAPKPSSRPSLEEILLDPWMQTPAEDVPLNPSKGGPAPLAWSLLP
# GSK3B, sequence (P49841 whole entry): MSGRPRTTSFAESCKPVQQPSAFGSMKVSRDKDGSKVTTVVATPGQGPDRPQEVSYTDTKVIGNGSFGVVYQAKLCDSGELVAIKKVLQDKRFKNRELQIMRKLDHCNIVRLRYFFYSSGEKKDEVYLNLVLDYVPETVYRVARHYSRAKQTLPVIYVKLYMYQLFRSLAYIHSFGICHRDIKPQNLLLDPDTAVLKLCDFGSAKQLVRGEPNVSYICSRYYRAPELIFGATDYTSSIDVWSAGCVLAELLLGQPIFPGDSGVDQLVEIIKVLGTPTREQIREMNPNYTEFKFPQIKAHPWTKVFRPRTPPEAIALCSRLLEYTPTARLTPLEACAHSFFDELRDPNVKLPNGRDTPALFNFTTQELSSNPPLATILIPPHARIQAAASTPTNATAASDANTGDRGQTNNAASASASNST
smiles,measurement,setting,value
"O=C(O)c1sc2cc(F)sc2c1Cl [PF-07208254, 3-chloro-5-fluorothieno[3,2-b]thiophene-2-carboxylic acid]",ATP = 1 mM % Inhibition PF-07208254,[1],-0.5%
same,ATP = Km % Inhibition PF-07208254,[1],9.0%
same,ATP = 100 uM % Inhibition PF-07208254,[2],-7.9%
same,ATP = 1 mM % Inhibition PF-07208254,[3],-0.6%
same,ATP = Km % Inhibition PF-07208254,[3],9.2%
same,ATP = 1 mM % Inhibition PF-07208254,[4],7.3%
same,ATP = Km % Inhibition PF-07208254,[4],24.5%
same,ATP = 1 mM % Inhibition PF-07208254,[5],-5.6%
same,ATP = Km % Inhibition PF-07208254,[5],0.5%
same,ATP = 1 mM % Inhibition PF-07208254,[6],0.7%
same,ATP = Km % Inhibition PF-07208254,[6],9.7%
same,ATP = Km % Inhibition PF-07208254,[7],9.9%
same,ATP = 1 mM % Inhibition PF-07208254,[8],9.9%
same,ATP = Km % Inhibition PF-07208254,[8],20.6%
same,ATP = Km % Inhibition PF-07208254,[9],3.6%
same,ATP = Km % Inhibition PF-07208254,[10],-3.3%
same,ATP = Km % Inhibition PF-07208254,[11],7.1%
same,ATP = Km % Inhibition PF-07208254,[12],3.1%
same,ATP = Km % Inhibition PF-07208254,[13],44.5%
same,ATP = 1 mM % Inhibition PF-07208254,[14],-5.2%
same,ATP = Km % Inhibition PF-07208254,[14],22.3%
same,ATP = Km % Inhibition PF-07208254,[15],1.8%
same,ATP = Km % Inhibition PF-07208254,[16],3.8%
same,ATP = 1 mM % Inhibition PF-07208254,[17],1.9%
same,ATP = Km % Inhibition PF-07208254,[17],-1.7%
same,ATP = 1 mM % Inhibition PF-07208254,[18],0.8%
same,ATP = Km % Inhibition PF-07208254,[18],3.6%
same,ATP = 1 mM % Inhibition PF-07208254,[19],1.9%
same,ATP = Km % Inhibition PF-07208254,[19],-0.1%
same,ATP = 10 uM % Inhibition PF-07208254,[20],-11.8%
same,ATP = Km % Inhibition PF-07208254,[21],2.8%
same,ATP = 1 mM % Inhibition PF-07208254,[22],0.7%
same,ATP = Km % Inhibition PF-07208254,[22],0.3%
same,ATP = Km % Inhibition PF-07208254,[23],5.1%
"CCC1(COc2ccc(-c3csc(-c4ccccc4C(=O)O)n3)cn2)CC1 [PF-07247685, 2-(4-{6-[(1-ethylcyclopropyl)methoxy]pyridin-3-yl}-1,3-thiazol-2-yl)benzoic acid]",ATP = 1 mM % Inhibition PF-07247685,[1],0.9%
same,ATP = Km % Inhibition PF-07247685,[1],5.1%
same,ATP = 100 uM % Inhibition PF-07247685,[2],-5.1%
same,ATP = 1 mM % Inhibition PF-07247685,[3],2.1%
same,ATP = Km % Inhibition PF-07247685,[3],3.1%
same,ATP = 1 mM % Inhibition PF-07247685,[4],1.9%
same,ATP = Km % Inhibition PF-07247685,[4],7.5%
same,ATP = 1 mM % Inhibition PF-07247685,[5],5.6%
same,ATP = Km % Inhibition PF-07247685,[5],0.6%
same,ATP = 1 mM % Inhibition PF-07247685,[6],3.7%
same,ATP = Km % Inhibition PF-07247685,[6],11.0%
same,ATP = Km % Inhibition PF-07247685,[7],4.5%
same,ATP = 1 mM % Inhibition PF-07247685,[8],3.0%
same,ATP = Km % Inhibition PF-07247685,[8],5.9%
same,ATP = Km % Inhibition PF-07247685,[9],-0.7%
same,ATP = Km % Inhibition PF-07247685,[10],21.9%
same,ATP = Km % Inhibition PF-07247685,[11],1.2%
same,ATP = Km % Inhibition PF-07247685,[12],-3.5%
same,ATP = Km % Inhibition PF-07247685,[13],-2.6%
same,ATP = 1 mM % Inhibition PF-07247685,[14],0.9%
same,ATP = Km % Inhibition PF-07247685,[14],0.1%
same,ATP = Km % Inhibition PF-07247685,[15],10.1%
same,ATP = Km % Inhibition PF-07247685,[16],14.8%
same,ATP = 1 mM % Inhibition PF-07247685,[17],4.0%
same,ATP = Km % Inhibition PF-07247685,[17],9.4%
same,ATP = 1 mM % Inhibition PF-07247685,[18],-0.9%
same,ATP = Km % Inhibition PF-07247685,[18],2.4%
same,ATP = 1 mM % Inhibition PF-07247685,[19],-5.1%
same,ATP = Km % Inhibition PF-07247685,[19],0.7%
same,ATP = 10 uM % Inhibition PF-07247685,[20],3.9%
same,ATP = Km % Inhibition PF-07247685,[21],12.6%
same,ATP = 1 mM % Inhibition PF-07247685,[22],8.6%
same,ATP = Km % Inhibition PF-07247685,[22],0.6%
same,ATP = Km % Inhibition PF-07247685,[23],0.4%
